Values quoted from earlier work, collected in US12016830B2, “Pharmaceutical compositions comprising isotretinoin and processes for preparation and uses thereof” (Acrotech Biopharma Inc., priority 2022, dated 2024).

Settings: background statement

CC1=C(/C=C/C(C)=C/C=C/C(C)=C\C(=O)O)C(C)(C)CCC1 [Isotretinoin, 13-cis retinoic acid]
oral bioavailability: low oral bioavailability
